Patent US12636269B2, “Compositions and methods of use of gamma-ketoaldheyde scavengers for treating, preventing or improving fibrosis of the liver” (MTI Biotech, Inc., priority 2017, dated 2026)

Legend:
[1] = test system: primary human HSC; conditions: non-cytotoxic levels; cited from earlier work
[2] = test system: DIAMOND mice; test: liver histology (fibrosis, steatosis, ballooning, inflammation) in DIAMOND mice on high-fat, high-sugar diet; assay type: in vivo, mouse; conditions: for fibrosis score: Picosirius Red staining, scale of 0 to 4, 1 g/L in drinking water, 12 weeks
Description: DIAMOND (Diet Induced Animal Model of Non-alcoholic fatty liver Disease) is a proprietary isogenic mouse strain that sequentially develops non-alcoholic fatty liver disease, non-alcoholic steatohepatitis, fibrosis, and hepatocellular carcinoma in response to a high-fat, high-sugar diet. Disease progression in the DIAMOND mice uniquely parallels human disease progression, including histopathology.
(§1) Twelve 8-wk old male DIAMOND mice were placed on ad libitum high fat diet (Harlan—ENVIGO TD.88317) and water containing glucose (18.9% w/v) and fructose (23.1% w/v); all mice remained on this diet throughout the study protocol. At 12 weeks of age, mice were divided into two groups: 1) 2-HOBA (n=6), and 2) vehicle controls (n=6). Animals in the 2-HOBA group received 2-HOBA in drinking water (1 g/L water with glucose and fructose). The vehicle control group received water without 2-HOBA (with glucose and fructose). Body weight and food intake were measured weekly. At […] of age, all animals underwent a glucose tolerance test (GTT) and MRI imaging to assess hepatic fat. For the GTT, animals were fasted for 12 hours and then glucose (2 g/kg bw of a 100 mg/mL glucose in sterile water) was administered by oral gavage. Blood was sampled at 0, 15, 30, 45, 60, 90, and 120 minutes after glucose administration and area under the curve was calculated. Animals were sacrificed at 24 weeks of age (12 weeks of 2-HOBA or vehicle treatment). Tissues and serum were collected for analysis.
Liver sections were stained with hematoxylin and eosin (for scoring of steatosis, hepatocyte ballooning, and inflammation) and Sirius red (for assessment of fibrosis). Scoring was performed in a blinded manner for steatosis, ballooning, inflammation, and necrosis using the following criterial, Steatosis (0-4): 0=<5%; 1=5-25%; 2=25-50%; 3=50-75%; 4=75-100%. Ballooning (0-3): 0=absent; 1=mild (focal involving fewer than three hepatocytes); 2=moderate (focal involving more than three hepatocytes or multifocal); 3=prominent (multifocal with more than two foci of three or more hepatocytes). Inflammation (0-4): 0=absent; 1=minimal (zero to one focus per 20× field); 2=mild (two foci); 3=moderate (three foci); 4=severe (four or more foci). Serum levels of glucose, alanine transaminase, and aspartate transaminase were measured. Liver mRNA expression was assessed via RT-qPCR for the following genes: Tnfa, Nlrpla, Il1b, Il18, Timp1, Colla1, ProCard, Nlrp3, Casp1, ProIl1b, Tgfb1, Bambi, Pdk4, and Gapdh. Two-tailed independent samples t-tests were used to compare endpoints between 2-HOBA and vehicle treated groups. Significance was set at α=0.05.

[3] = test system: Timp1; test: liver mRNA expression by RT-qPCR in DIAMOND mice, Timp1; assay type: in vivo, mouse; conditions: qRT-PCR
Description: as §1, with “Animals were sacrificed at 24 weeks of age (12 weeks of 2-HOBA or vehicle treatment). Tissues and serum were collected for analysis.” left out
(§2) Liver sections were stained with hematoxylin and eosin (for scoring of steatosis, hepatocyte ballooning, and inflammation) and Sirius red (for assessment of fibrosis). […] Serum levels of glucose, alanine transaminase, and aspartate transaminase were measured. Liver mRNA expression was assessed via RT-qPCR for the following genes: Tnfa, Nlrpla, Il1b, Il18, Timp1, Colla1, ProCard, Nlrp3, Casp1, ProIl1b, Tgfb1, Bambi, Pdk4, and Gapdh. […]

[4] = test system: Colla1; test: liver mRNA expression by RT-qPCR in DIAMOND mice, Colla1; assay type: in vivo, mouse; conditions: qRT-PCR, not statistically significant (p=0.08)
Description: as §1, with “Animals were sacrificed at 24 weeks of age (12 weeks of 2-HOBA or vehicle treatment). Tissues and serum were collected for analysis.” left out
as §2

[5] = in vitro and in vivo; cited from earlier work
[6] = test system: cyclooxygenase enzymes; conditions: cited from earlier work
[7] = test system: HepG2 cells; conditions: cited from earlier work
[8] = compared to vehicle treated DIAMOND mice

Row | Molecule | HSC activation (α-SMA expression, MAPK activation, cytokine production) [1] | hepatic fibrosis ([2]; DIAMOND mice) | markers of inflammation ([2]; DIAMOND mice) | fibrosis score ([2]; the remaining two treated mice) | fibrosis score ([2]; three of the treated mice) | degree of hepatic steatosis [2, 8] | degree of hepatocellular ballooning [2, 8] | incidence of fibrosis ([2]; compared to vehicle treated DIAMOND mice, p=0.03) | liver Timp1 mRNA expression [3] | Colla1 mRNA expression levels [4] | protein and lipid adduction [5] | inhibition of cyclooxygenase enzymes [6] | protection against H2O2-induced cytotoxicity [7]
1 | 15-E2-isolevuglandin [15-E2-IsoLG] | promoted HSC activation |  |  |  |  |  |  |  |  |  |  |  | 
2 | NCc1ccccc1O [2-HOBA, 2-Hydroxybenzylamine] |  | attenuates | without altering | 1 | 0 | similar | similar | significantly lower | reduced | tended to be lower | preventing protein and lipid adduction | does not inhibit | dramatically protected
